According to US20230295212A1 (ROME Therapeutics, Inc., priority 2022, published 2023):

Biological target: T1, LINE1 reverse transcriptase (Homo sapiens, UniProt O00370)
T1 construct: expressed in transfected cells; host or cells: HeLa Tet-On 3G (Takara, cat no 631183)
Experiment: Stable artificial-intron Cis LINE1 reporter assay (HeLa Tet-On 3G, Firefly luciferase)
Type: cell-based
Conditions: HeLa L1 artificial-intron reporter cells, doxycycline 500 ng/mL, 72 h, class symbols
Procedure: Exemplary compounds, were tested for the ability to inhibit LINE1 reverse transcriptase using a stable artificial-intron Cis LINE1 reporter assay. Assay procedures and results are described below.
A stable HeLa Tet-On 3G (Takara, cat no 631183) cell line expressing a bi-directional inducible LINE1 construct was generated as described in Xie, Y. et al. “Cell division promotes efficient retrotransposition in a stable L1 reporter cell line,” Mobile DNA (2013) 4:10. Single cell clones were screened for high Luciferase expression and the highest expression Firefly expressing clone was chosen for compound testing.
Test compounds were serially diluted in DMSO and spotted in 96-well plates. Subsequently, the HeLa Li artificial-intron reporter cells were plated into the compound-containing wells (8,000 cells/well), and the cells were induced for reporter expression with doxycycline (Sigma-Aldrich cat #D9891) at a final concentration of 500 ng/mL. Luminescence was measured 72 h after plating using the Dual-Glo Luciferase Assay System (Promega cat #E2940) following the manufacturer's instructions. The Firefly Luciferase activity was used to report LINE1 activity.

T1 sequence (O00370 whole entry, looked up): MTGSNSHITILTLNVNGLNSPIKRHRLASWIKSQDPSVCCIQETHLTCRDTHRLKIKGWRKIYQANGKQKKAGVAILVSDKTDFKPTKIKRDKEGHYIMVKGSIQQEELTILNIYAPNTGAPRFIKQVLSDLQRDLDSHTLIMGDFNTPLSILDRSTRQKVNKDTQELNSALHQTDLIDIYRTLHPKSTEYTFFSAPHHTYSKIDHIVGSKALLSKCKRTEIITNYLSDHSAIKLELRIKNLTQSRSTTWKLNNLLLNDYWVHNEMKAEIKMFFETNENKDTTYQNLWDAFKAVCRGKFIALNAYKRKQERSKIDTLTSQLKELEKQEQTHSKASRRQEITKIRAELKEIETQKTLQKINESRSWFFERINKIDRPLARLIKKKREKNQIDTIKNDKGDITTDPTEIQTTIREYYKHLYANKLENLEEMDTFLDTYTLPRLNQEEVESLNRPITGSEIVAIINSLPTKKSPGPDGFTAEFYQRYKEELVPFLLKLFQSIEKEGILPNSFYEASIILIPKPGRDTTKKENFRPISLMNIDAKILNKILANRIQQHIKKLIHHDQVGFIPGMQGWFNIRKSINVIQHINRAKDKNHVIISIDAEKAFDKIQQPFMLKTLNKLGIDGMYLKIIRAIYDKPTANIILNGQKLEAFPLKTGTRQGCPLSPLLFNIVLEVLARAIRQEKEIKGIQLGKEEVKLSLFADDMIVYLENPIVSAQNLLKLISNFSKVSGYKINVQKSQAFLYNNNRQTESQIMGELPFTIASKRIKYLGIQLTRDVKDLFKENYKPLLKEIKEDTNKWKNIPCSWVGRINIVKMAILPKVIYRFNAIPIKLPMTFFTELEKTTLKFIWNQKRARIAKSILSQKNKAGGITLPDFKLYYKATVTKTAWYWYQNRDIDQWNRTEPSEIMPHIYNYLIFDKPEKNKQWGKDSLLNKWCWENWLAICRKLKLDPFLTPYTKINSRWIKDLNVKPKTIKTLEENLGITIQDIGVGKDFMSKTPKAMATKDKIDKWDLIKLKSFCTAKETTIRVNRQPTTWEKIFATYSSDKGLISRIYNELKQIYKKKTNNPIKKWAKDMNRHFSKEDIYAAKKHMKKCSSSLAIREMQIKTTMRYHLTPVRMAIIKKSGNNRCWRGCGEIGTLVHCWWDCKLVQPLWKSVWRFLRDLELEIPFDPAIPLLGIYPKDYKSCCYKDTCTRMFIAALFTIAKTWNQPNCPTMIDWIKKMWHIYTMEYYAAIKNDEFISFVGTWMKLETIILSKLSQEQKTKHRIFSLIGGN

| IC50 [nM] | Structure (SMILES) |
| --- | --- |
| > 1000 | O=c1ccn([C@@H]2OC(CO)(CO)[C@@H](O)[C@@H]2F)c(=O)[nH]1 [Compound 3, 1-((2R,3S,4R)-3-fluoro-4-hydroxy-5,5-bis(hydroxymethyl)tetrahydrofuran-2-yl)pyrimidine-2,4(1H,3H)-dione] |
| > 1000 | Cc1cn([C@H]2C[C@H](O)[C@](CO)(CCl)O2)c(=O)[nH]c1=O [Compound 4, 1-((2R,4S,5R)-5-(chloromethyl)-4-hydroxy-5-(hydroxymethyl)tetrahydrofuran-2-yl)-5-methylpyrimidine-2,4(1H,3H)-dione] |
| 50 to 100 | C#C[C@]1(CO)O[C@@H](n2cnc3c(N)nc(Cl)nc32)[C@@H](F)[C@@H]1O [Compound 5, (2R,3R,4S,5R)-5-(6-amino-2-chloro-9H-purin-9-yl)-2-ethynyl-4-fluoro-2-(hydroxymethyl)tetrahydrofuran-3-ol] |
| 100 to 250 | O=c1nc(NO)ccn1[C@H]1C[C@H](O)[C@](CO)(CCl)O1 [Compound 6, 1-((2R,4S,5R)-5-(chloromethyl)-4-hydroxy-5-(hydroxymethyl)tetrahydrofuran-2-yl)-4-(hydroxyamino)pyrimidin-2(1H)-one] |
| > 1000 | Cc1cn([C@H]2C[C@H](F)[C@](CO)(CCl)O2)c(=O)[nH]c1=O [Compound 7, 1-((2R,4S,5R)-5-(chloromethyl)-4-fluoro-5-(hydroxymethyl)tetrahydrofuran-2-yl)-5-methylpyrimidine-2,4(1H,3H)-dione] |
| 100 to 250 | Nc1nc(F)nc2c1ncn2[C@H]1C[C@H](O)[C@](CO)(CCl)O1 [Compound 8, (2R,3S,5R)-5-(6-amino-2-fluoro-9H-purin-9-yl)-2-(chloromethyl)-2-(hydroxymethyl)tetrahydrofuran-3-ol] |
| > 1000 | Cc1cn([C@@H]2O[C@@](CO)(CCl)[C@@H](O)[C@H]2F)c(=O)[nH]c1=O [Compound 9, 1-((2R,3R,4R,5R)-5-(chloromethyl)-3-fluoro-4-hydroxy-5-(hydroxymethyl)tetrahydrofuran-2-yl)-5-methylpyrimidine-2,4(1H,3H)-dione] |
| > 1000 | Nc1nc(F)nc2c1ncn2[C@H]1C[C@H](O)C(CO)(CO)O1 [Compound 10, ((3S,5R)-5-(6-amino-2-fluoro-9H-purin-9-yl)-3-hydroxytetrahydrofuran-2,2-diyl)dimethanol] |
| > 1000 | Cc1cn([C@H]2C[C@H](O)[C@](CO)(CCl)O2)c(=O)nc1N [Compound 11, 4-amino-1-((2R,4S,5R)-5-(chloromethyl)-4-hydroxy-5-(hydroxymethyl)tetrahydrofuran-2-yl)-5-methylpyrimidin-2(1H)-one] |
| 250 to 1000 | C[C@@H]1[C@H](n2ccc(N)nc2=O)O[C@@](CO)(CCl)[C@H]1O [Compound 12, 4-amino-1-((2R,3S,4S,5R)-5-(chloromethyl)-4-hydroxy-5-(hydroxymethyl)-3-methyltetrahydrofuran-2-yl)pyrimidin-2(1H)-one] |
| 250 to 1000 | CO[C@@H]1[C@H](n2ccc(N)nc2=O)O[C@@](CO)(CCl)[C@H]1O [Compound 13, 4-amino-1-((2R,3S,4S,5R)-5-(chloromethyl)-4-hydroxy-5-(hydroxymethyl)-3-methoxytetrahydrofuran-2-yl)pyrimidin-2(1H)-one] |
| 250 to 1000 | Nc1ncnc2c1ncn2[C@H]1C[C@H](O)[C@](CO)(CCl)O1 [Compound 15, (2R,3S,5R)-5-(6-amino-9H-purin-9-yl)-2-(chloromethyl)-2-(hydroxymethyl)tetrahydrofuran-3-ol] |
| 250 to 1000 | Nc1ccn([C@H]2C[C@H](O)[C@](CO)(C3CC3)O2)c(=O)n1 [Compound 16, 4-amino-1-((2R,4S,5R)-5-cyclopropyl-4-hydroxy-5-(hydroxymethyl)tetrahydrofuran-2-yl)pyrimidin-2(1H)-one] |
| > 1000 | Nc1cnn([C@H]2C[C@H](O)[C@](CO)(CCl)O2)c(=O)n1 [Compound 18, 5-amino-2-((2R,4S,5R)-5-(chloromethyl)-4-hydroxy-5-(hydroxymethyl)tetrahydrofuran-2-yl)-1,2,4-triazin-3(2H)-one] |
| 250 to 1000 | C[C@@H]1[C@H](n2ccc(N)nc2=O)O[C@](C)(CO)[C@H]1O [Compound 19, 4-amino-1-((2R,3S,4S,5R)-4-hydroxy-5-(hydroxymethyl)-3,5-dimethyltetrahydrofuran-2-yl)pyrimidin-2(1H)-one] |
| > 1000 | C#C[C@@H]1[C@H](n2ccc(N)nc2=O)O[C@](C)(CO)[C@H]1O [Compound 20, 4-amino-1-((2R,3S,4S,5R)-3-ethynyl-4-hydroxy-5-(hydroxymethyl)-5-methyltetrahydrofuran-2-yl)pyrimidin-2(1H)-one] |
| 250 to 1000 | Nc1ccn([C@H]2C[C@H](O)[C@](CO)(C(F)(F)F)O2)c(=O)n1 [Compound 21, 4-amino-1-((2R,4S,5R)-4-hydroxy-5-(hydroxymethyl)-5-(trifluoromethyl)tetrahydrofuran-2-yl)pyrimidin-2(1H)-one] |
| ≤ 50 | Nc1nc(=O)n([C@H]2C[C@H](O)[C@](CO)(CF)O2)cc1F [Compound 22, 4-amino-5-fluoro-1-((2R,4S,5R)-5-(fluoromethyl)-4-hydroxy-5-(hydroxymethyl)tetrahydrofuran-2-yl)pyrimidin-2(1H)-one] |
| 250 to 1000 | CC(C)C(=O)OC[C@@]1(CCl)O[C@@H](n2ccc(N)nc2=O)[C@H](F)[C@@H]1OC(=O)C(C)C [Compound 24, (2R,3R,4R,5R)-5-(4-amino-2-oxopyrimidin-1(2H)-yl)-2-(chloromethyl)-4-fluoro-2-((isobutyryloxy)methyl) tetrahydrofuran-3-yl isobutyrate] |
| ≤ 50 | C#C[C@]1(CO)O[C@@H](n2cnc3c(N)ncnc32)C[C@@H]1O [Compound 27, (2R,3S,5R)-5-(6-amino-9H-purin-9-yl)-2-ethynyl-2-(hydroxymethyl) tetrahydrofuran-3-ol] |
| > 1000 | O=c1nc(NO)ccn1[C@@H]1O[C@@](CO)(CCl)[C@@H](O)[C@H]1F [Compound 28, 1-((2R,3R,4R,5R)-5-(chloromethyl)-3-fluoro-4-hydroxy-5-(hydroxymethyl)tetrahydrofuran-2-yl)-4-(hydroxyamino)pyrimidin-2(1H)-one] |
| > 1000 | O=c1ccn([C@@H]2O[C@@](CO)(CCl)[C@@H](O)[C@H]2F)c(=O)[nH]1 [Compound 29, 1-((2R,3R,4R,5R)-5-(chloromethyl)-3-fluoro-4-hydroxy-5-(hydroxymethyl)tetrahydrofuran-2-yl)pyrimidine-2,4(1H,3H)-dione] |
| > 1000 | Cc1cn([C@H]2C[C@H](O)[C@](CO)(N=[N+]=[N-])O2)c(=O)[nH]c1=O [Compound 30, 1-((2R,4S,5R)-5-azido-4-hydroxy-5-(hydroxymethyl)tetrahydrofuran-2-yl)-5-methylpyrimidine-2,4(1H,3H)-dione] |
| ≤ 50 | Nc1ccn([C@@H]2O[C@@](CO)(CCl)[C@@H](O)[C@H]2F)c(=O)n1 [Compound 31, 4-amino-1-((2R,3R,4R,5R)-5-(chloromethyl)-3-fluoro-4-hydroxy-5-(hydroxymethyl)tetrahydrofuran-2-yl)pyrimidin-2(1H)-one] |
| > 1000 | C#C[C@]1(CO)O[C@@H](n2ccc(N)nc2=O)[C@H](F)[C@@H]1O [Compound 32, 4-amino-1-((2R,3R,4R,5R)-5-ethynyl-3-fluoro-4-hydroxy-5-(hydroxymethyl)tetrahydrofuran-2-yl)pyrimidin-2(1H)-one] |
| > 1000 | C#C[C@]1(CO)O[C@@H](n2ccc(=O)[nH]c2=O)[C@H](F)[C@@H]1O [Compound 33, 1-((2R,3R,4R,5R)-5-ethynyl-3-fluoro-4-hydroxy-5-(hydroxymethyl)tetrahydrofuran-2-yl)pyrimidine-2,4(1H,3H)-dione] |
| ≤ 50 | C#C[C@]1(CO)O[C@@H](n2ccc(N)nc2=O)[C@@H](F)[C@@H]1O [Compound 35, 4-amino-1-((2R,3S,4R,5R)-5-ethynyl-3-fluoro-4-hydroxy-5-(hydroxymethyl)tetrahydrofuran-2-yl)pyrimidin-2(1H)-one] |
| > 1000 | C#C[C@]1(CO)O[C@@H](n2ccc(=O)[nH]c2=O)[C@@H](F)[C@@H]1O [Compound 36, 1-((2R,3S,4R,5R)-5-ethynyl-3-fluoro-4-hydroxy-5-(hydroxymethyl)tetrahydrofuran-2-yl)pyrimidine-2,4(1H,3H)-dione] |
| ≤ 50 | C#C[C@]1(CO)O[C@@H](c2ccc3c(N)ncnn23)C[C@@H]1O [Compound 37, (2R,3S,5R)-5-(4-aminopyrrolo[2,1-f][1,2,4]triazin-7-yl)-2-ethynyl-2-(hydroxymethyl) tetrahydrofuran-3-ol] |
| > 1000 | C#C[C@]1(CO)O[C@@H](n2cc(C)c(=O)[nH]c2=O)C[C@@H]1O [Compound 38, 1-((2R,4S,5R)-5-ethynyl-4-hydroxy-5-(hydroxymethyl)tetrahydrofuran-2-yl)-5-methylpyrimidine-2,4(1H,3H)-dione] |

Same assay, conditions: HeLa L1 artificial-intron reporter cells, doxycycline 500 ng/mL, 72 h, numeric bounds

| IC50 [nM] | Structure (SMILES) |
| --- | --- |
| > 30000 | C#C[C@@H]1[C@H](n2ccc(N)nc2=O)O[C@@](CO)(CCl)[C@H]1O [Compound 17, 4-amino-1-((2R,3S,4S,5R)-5-(chloromethyl)-3-ethynyl-4-hydroxy-5-(hydroxymethyl)tetrahydrofuran-2-yl)pyrimidin-2(1H)-one] |
| > 30000 | O=c1ccn([C@H]2C[C@H](O)[C@](CO)(CCl)O2)c(=O)[nH]1 [Compound 34, 1-((2R,4S,5R)-5-(chloromethyl)-4-hydroxy-5-(hydroxymethyl)tetrahydrofuran-2-yl)pyrimidine-2,4(1H,3H)-dione] |
